Test results: article PMC8388802, “Study on the Structure-Activity Relationship of an Antimicrobial Peptide, Brevinin-2GUb, from the Skin Secretion of Hylarana guentheri” (Antibiotics, 2021)
Converted amounts (≈) assume the structure as drawn. Where a SMILES comes first, the peptide text is derived from it.

Assays:
[1] = system: S. aureus (ATCC 6538); assay type: cell-based, Staphylococcus aureus
Protocol: (§1) The method of antimicrobial assay is based on the Methods for Dilution Antimicrobial Susceptibility Tests for Bacteria that Grow Aerobically from the Clinical and Laboratory Standards Institute (CLSI).The antimicrobial activities of peptides were evaluated against Gram-positive bacteria S. aureus (ATCC 6538), MRSA (NCTC 12493), E. faecalis (NCTC 12493), Gram-negative bacteria E. coli (ATCC CRM 8739), K. pneumoniae (ATCC 43816), P. aeruginosa (ATCC CRM 9027), yeast C. albicans (ATCC CRM 10231) and clinical isolates MRSA (B042 V2E1 A), E. coli (ATCC BAA-2340), K. pneumoniae (ATCC BAA-1705), P. aeruginosa (B004 V2S2 B).
(§2) At the first stage of the assay, 20 μL bacteria were cultured in 100 mL Mueller Hinton Broth (MHB) or Yeast Extract–Peptone–Dextrose broth (YPD-B), respectively, and was incubated overnight. Then, microorganisms were subcultured in 20 mL fresh MHB or YPD-B to achieve cultures in the logarithmic phase (1 × 10^8 CFU/mL), which can be verified by optical density (OD) (The OD of Gram-positive bacteria is 0.23, OD of Gram-negative bacteria is 0.4, and OD of yeast is 0.15), and viable cell counts. Then, the medium was used to dilute the cultures to specific cell densities (Gram-negative and Gram-positive bacteria: 5 × 10^5 CFU/mL; yeast: 1 × 10^6 CFU/mL), which were the final concentrations of bacterial suspensions used in the assay. The peptides were dissolved in DMSO to reach a final concentration of 512 µM. A series of two-fold dilutions ranging from 512 µM to 1 µM were dosed in the 96-well plates.
(§3) Antimicrobial assays were conducted in 96-well plates, which were divided into five groups, including a negative control group (PBS), a positive control group (20 μg/mL norfloxacin for bacteria and 10 μg/mL amphotericin B for yeast), vehicle control (1% DMSO), blank control (MHB or YPD-B), and a peptide group. Each microorganism had five repetitions, and each well contained 1 µL corresponding solution and 99 µL culture. After incubation at 37 °C overnight, the absorbance of each well was tested by a microplate reader (EL808, Biolise BioTek Winooski, Minneapolis, USA) under a 550 nm wavelength. The MIC is the lowest concentration at which no bacterial growth can be observed.
(§4) The next day, 10 µL of every clear well was taken out to be cultured on a Mueller Hinton Agar (MHA) plate and incubated at 37 °C for 16–20 h. The MBC is the lowest concentration without any bacterial colonies, which means at this concentration, the peptide reduces the viability of the pathogen by more than 99.9%.

[2] = system: C. albicans (ATCC CRM 10231); assay type: cell-based, Candida albicans
Protocol: as §1, §2, §3, §4

[3] = system: E. faecalis (NCTC 12493); assay type: cell-based, Enterococcus faecalis
Protocol: as §1, §2, §3, §4

[4] = system: horse red cells (defibrinated horse blood); experiment: Haemolysis assay; assay type: cell-based; conditions: 2% (v/v) horse red cell suspension mixed 1:1 with peptide in PBS, 37 ℃ 2 h, absorbance 570 nm, 0.1% Triton X-100 positive control; nine replicates from three independent tests
Protocol: The haemolysis assay was conducted on defibrinated horse blood (TCS Biosciences Ltd., Buckingham, UK), which was washed by PBS in advance. The peptides were dissolved in PBS to the concentration of 1024 μM, and a series of two-fold dilutions was made by PBS as well. A volume of different concentrations of 120 μL peptide solutions were mixed with the same volume of 2% (v/v) of horse red cell suspension gently in a 1.5 mL tube, and the complex was incubated at 37 ℃ for 2 h. PBS and 0.1% Triton X-100 with the same volume were used as the negative and positive controls, respectively. Each group had three replicates. After the incubation, 100 μL supernatant of each tube was aspirated into a new 96-well plate, and their absorbances were analysed by a microplate reader (EL808, Biolise BioTek Winooski, Minneapolis, USA) at a wavelength of 570 nm. The equation to calculate the haemolysis of the peptides is shown below. (2) […]=(A−An)/(Ap−An)×100%
A represents the absorbance of each well in the sample groups. An represents the average absorbance of the wells in the negative control group. Ap represents the average absorbance of the wells in the positive control group.

[5] = system: S. aureus (ATCC 6538) biofilm; assay type: cell-based, Staphylococcus aureus; conditions: ATCC 6538, 24 h
Protocol: The anti-biofilm activities of the peptides against S. aureus (ATCC 6538), MRSA (NCTC 12493), E. faecalis (NCTC 12493), E. coli (ATCC CRM 8739), K. pneumoniae (ATCC 43816), and P. aeruginosa (ATCC CRM 9027) were evaluated.
The bacteria were inoculated in a different medium (Gram-positive bacteria were in TSB and Gram-negative bacteria were in LB) overnight, and the subculture was conducted in the same medium. When the bacteria reached a specific density, 100 µL of the dilution was added to each well of the 96-well microplate. Then 1 µL of peptide at a series of concentrations, the same concentration in the antimicrobial assay, were added into the well together with the bacteria. The plates were put into a moist shaking incubator with a speed of 200 rpm, and the temperature was set at 37 ℃. After a 24-h incubation, the liquid in the wells was aspirated, and each was washed twice by 100 µL PBS. One hundred µL of methanol were added into each well to stabilise the biofilm. After air-drying, 100 µL crystal violet was used to dye the biofilm, and they were dissolved in the 100 µL glacial acidic acid after drying. The solutions were transferred to a new microplate, and the absorbance of each well was tested by a microplate reader (EL808, Biolise BioTek Winooski, Minneapolis, MN, USA) at 595 nm wavelength. MBIC was the minimum concentration of the peptide showing no biofilm formation.
The bacteria were inoculated in a different medium (Gram-positive bacteria were in TSB and Gram-negative bacteria were in LB) overnight, and the subculture was conducted in the same medium. When the bacteria reached a specific density, 100 µL of the dilution was added to each well of the 96-well microplates. The plates were put into a moist shaking incubator with a speed of 200 rpm and the temperature was 37 ℃. After a 24 h incubation, the liquid in the wells was aspirated and they were washed twice by 100 µL PBS of each well. The peptides with the same concentrations were diluted in the corresponding medium and 100 µL were added into each well. After a 24-h incubation, the liquid in the wells was aspirated and they were washed twice by 100 µL PBS. One hundred µL of methanol were added into the wells to stabilise the biofilms. After being air-dried, 100 µL crystal violet was used to dye the biofilm, and they were dissolved in the 100 µL glacial acidic acid after drying. The solutions were transferred to a new microplate, and the absorbance of each well was tested by a microplate reader (EL808, Biolise BioTek Winooski, Minneapolis, USA) at 595 nm wavelength.

Row | Compound | MBC [1] [µM] | MIC [1] [µM] | MBC [2] [µM] | MIC [2] [µM] | MBC [3] [µM] | MIC [3] [µM] | HC50 [4] | MBEC [5] | MBIC [5]
1 | CC[C@H](C)[C@H](NC(=O)[C@@H](NC(=O)CN)C(C)C)C(=O)N[C@H](C(=O)N[C@@H](CCCCN)C(=O)N[C@H](C(=O)N[C@@H](CC(C)C)C(=O)N[C@@H](CCCCN)C(=O)NCC(=O)N[C@@H](C)C(=O)N[C@@H](C)C(=O)N[C@@H](CCCCN)C(=O)N[C@H](C(=O)N[C@H](C(=O)N[C@@H](C)C(=O)N[C@@H](C)C(=O)N[C@@H](CCCCN)C(=O)N[C@@H](CC(C)C)C(=O)N[C@@H](CC(C)C)C(N)=O)C(C)C)[C@@H](C)O)[C@@H](C)O)[C@@H](C)CC [tB2U-K] (H-GVIIKTLKGAAKTVAAKLL-NH2) | 32 (≈ 60.6 µg/mL) | 32 (≈ 60.6 µg/mL) | 64 (≈ 121 µg/mL) | 64 (≈ 121 µg/mL) | 32 (≈ 60.6 µg/mL) | 32 (≈ 60.6 µg/mL) | 3056 µM | > 512 µM | 16 µM
2 | CC[C@H](C)[C@H](NC(=O)[C@@H](NC(=O)CN)C(C)C)C(=O)N[C@H](C(=O)N[C@@H](CCCCN)C(=O)N[C@@H](CCCCN)C(=O)N[C@@H](CC(C)C)C(=O)N[C@@H](CCCCN)C(=O)NCC(=O)N[C@@H](C)C(=O)N[C@@H](C)C(=O)N[C@@H](CCCCN)C(=O)N[C@@H](CCCCN)C(=O)N[C@H](C(=O)N[C@@H](C)C(=O)N[C@@H](C)C(=O)N[C@@H](CCCCN)C(=O)N[C@@H](CC(C)C)C(=O)N[C@@H](CC(C)C)C(N)=O)C(C)C)[C@@H](C)CC [tB2U-6K] (H-GVIIKKLKGAAKKVAAKLL-NH2) | 32 (≈ 62.4 µg/mL) | 32 (≈ 62.4 µg/mL) | 256 (≈ 499 µg/mL) | 256 (≈ 499 µg/mL) | 64 (≈ 125 µg/mL) | 64 (≈ 125 µg/mL) | 6506 µM | > 512 µM | 64 µM
3 | CC[C@H](C)[C@H](NC(=O)[C@@H](NC(=O)CN)C(C)C)C(=O)N[C@H](C(=O)N[C@@H](CCCCN)C(=O)N[C@H](C(=O)N[C@@H](CC(C)C)C(N)=O)[C@@H](C)O)[C@@H](C)CC [Peptide 7-tB2U-K] (H-GVIIKTL-NH2) | > 512 | 512 (≈ 380 µg/mL) | >512 | >512 | >512 | >512 | 11,008 μM | 512/>512 μM | 512/>512 μM
4 | CC[C@H](C)[C@H](NC(=O)[C@@H](NC(=O)CN)C(C)C)C(=O)N[C@H](C(=O)N[C@@H](CCCCN)C(=O)N[C@H](C(=O)N[C@@H](CC(C)C)C(=O)N[C@@H](CCCCN)C(=O)NCC(=O)N[C@@H](C)C(=O)N[C@@H](C)C(=O)N[C@@H](CCCCN)C(=O)N[C@H](C(=O)N[C@H](C(N)=O)C(C)C)[C@@H](C)O)[C@@H](C)O)[C@@H](C)CC [Peptide 14-tB2U-K] (H-GVIIKTLKGAAKTV-NH2) | > 512 | 256 (≈ 358 µg/mL) | >512 | >512 | >512 | >512 | 10,834 μM | >512 µM | >512 µM
5 | CC[C@H](C)[C@H](NC(=O)[C@@H](NC(=O)CN)C(C)C)C(=O)N[C@H](C(=O)N[C@@H](CC(=O)O)C(=O)N[C@H](C(=O)N[C@@H](CC(C)C)C(=O)N[C@@H](CCCCN)C(=O)NCC(=O)N[C@@H](C)C(=O)N[C@@H](C)C(=O)N[C@@H](CCCCN)C(=O)N[C@H](C(=O)N[C@H](C(=O)N[C@@H](C)C(=O)N[C@@H](C)C(=O)N[C@@H](CCC(=O)O)C(=O)N[C@@H](CC(C)C)C(=O)N[C@@H](CC(C)C)C(N)=O)C(C)C)[C@@H](C)O)[C@@H](C)O)[C@@H](C)CC [tB2U-α] (H-GVIIDTLKGAAKTVAAELL-NH2) | >512 | >512 | >512 | >512 | >512 | >512 | 15,609 μM | >512 µM | >512 µM
6 | CC[C@H](C)[C@H](NC(=O)[C@@H](NC(=O)CN)C(C)C)C(=O)N[C@H](C(=O)N[C@@H](CC(=O)O)C(=O)N[C@H](C(=O)N[C@@H](CC(C)C)C(=O)N[C@@H](CCCCN)C(=O)NCC(=O)N[C@@H](C)C(=O)N[C@@H](C)C(=O)N[C@@H](CCCCN)C(=O)N[C@H](C(=O)N[C@H](C(=O)N[C@@H](C)C(=O)N[C@@H](C)C(=O)N[C@@H](CCC(=O)O)C(=O)N[C@@H](CC(C)C)C(=O)N[C@@H](CC(C)C)C(=O)N[C@@H](CCCNC(=N)N)C(=O)N[C@@H](CCCCN)C(=O)N[C@@H](C)C(=O)N[C@@H](Cc1c[nH]cn1)C(N)=O)C(C)C)[C@@H](C)O)[C@@H](C)O)[C@@H](C)CC [tB2U] (H-GVIIDTLKGAAKTVAAELLRKAH-NH2) | > 512 | 256 (≈ 608 µg/mL) | >512 | >512 | >512 | >512 | 16,393 μM | >512 µM | >512 µM
